Read-outs that look alike come from different tables or passages of the source.
Tests used:
[1] = molecular target: T1, full-length beta-Catenin (Uniprot ID P35222) (Homo sapiens, UniProt P35222); assay: Fluorescence polarization IC50 (beta-catenin / 5FAM-TCF4 10-53 competition); format: binding; details: fluorescence polarization; read-out: beta-Catenin FP IC50
T1 construct: 10 nM full-length beta-Catenin (Uniprot ID P35222)
T1 sequence (P35222 1-781): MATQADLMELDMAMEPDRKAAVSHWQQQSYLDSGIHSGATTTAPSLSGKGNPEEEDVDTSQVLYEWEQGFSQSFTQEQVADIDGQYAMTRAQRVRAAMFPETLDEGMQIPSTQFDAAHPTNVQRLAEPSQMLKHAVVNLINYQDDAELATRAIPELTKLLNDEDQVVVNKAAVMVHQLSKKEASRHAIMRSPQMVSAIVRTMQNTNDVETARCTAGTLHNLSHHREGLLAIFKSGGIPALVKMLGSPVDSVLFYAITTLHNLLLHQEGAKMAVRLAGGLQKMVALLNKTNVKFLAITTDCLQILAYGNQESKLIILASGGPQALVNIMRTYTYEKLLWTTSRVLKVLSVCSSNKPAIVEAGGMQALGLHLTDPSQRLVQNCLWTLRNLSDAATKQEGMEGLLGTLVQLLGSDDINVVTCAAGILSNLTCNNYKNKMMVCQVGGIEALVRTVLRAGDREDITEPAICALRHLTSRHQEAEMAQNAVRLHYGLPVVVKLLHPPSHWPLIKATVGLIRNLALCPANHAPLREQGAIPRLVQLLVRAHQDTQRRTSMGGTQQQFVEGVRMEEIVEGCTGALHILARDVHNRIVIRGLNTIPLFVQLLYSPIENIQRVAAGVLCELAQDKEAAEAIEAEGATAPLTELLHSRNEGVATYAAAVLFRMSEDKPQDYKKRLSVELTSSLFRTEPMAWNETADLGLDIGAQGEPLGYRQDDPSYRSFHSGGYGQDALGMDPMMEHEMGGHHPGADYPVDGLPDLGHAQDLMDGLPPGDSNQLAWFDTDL

[2] = molecular target: T2, beta-catenin/TCF4 engagement (Homo sapiens, UniProt P35222); assay: Nano-BRET target engagement assay (B-cat-Halo & TCF4-Luc in HEK293 cells); format: cell-based; details: read-out: NanoBRET Abs IC50
T2 construct: expressed in transfected cells; host or cells: HEK293
T2 sequence (P35222 1-781): T1 sequence (P35222 1-781)

## CC(=O)N1CCC[C@]12CC=CCCCC1(CCCC=CCCCOC(=O)N3CC[C@@](C(=O)N[C@@H](Cc4ccsc4)C(=O)N[C@@H](Cc4csc5ccccc45)C(=O)N[C@@H](CO)C(N)=O)(C3)NC(=O)[C@H](CC(C)C)NC(=O)[C@H](Cc3ccccc3)NC(=O)[C@H](C)NC(=O)[C@H](C)NC(=O)[C@H](CC(=O)O)NC(=O)[C@H](CC(=O)O)NC1=O)NC(=O)[C@H](CC(C)(C)C)NC(=O)[C@H](CC(=O)O)NC2=O (stereo partly drawn) [I-1493, Ac-PL3-Asp-Npg-B5-Asp-Asp-Ala-Ala-Phe-Leu-PyrS2-3Thi-BztA-Ser-NH2]
[1]
  IC50: 10 nM
[2]; absolute IC50
  IC50: 4900 nM

## CC(=O)N1CCC[C@]12CCCC[C@@](C)(C(=O)N[C@@H](CC(=O)O)C(=O)N[C@@H](CC(=O)O)C(=O)N[C@@H](C)C(=O)N[C@@H](C)C(=O)N[C@@H](Cc1ccccc1)C(=O)N[C@@H](CC(C)C)C(=O)NC(C)(C)C(=O)N[C@@H](Cc1ccsc1)C(=O)N[C@@H](Cc1csc3ccccc13)C(=O)N[C@@H](CCC(N)=O)C(N)=O)NC(=O)[C@H](CC(C)(C)C)NC(=O)[C@H](CC(=O)O)NC2=O [I-1983, Ac-PL3-Asp-Npg-S3-Asp-Asp-Ala-Ala-Phe-Leu-Aib-3Thi-BztA-Gln-NH2]
[1]
  IC50: 186 nM
[2]
  IC50: > 20000 nM

## CC(=O)N1CCC[C@]12CC=CCCCC1(CCCC=CCCCCCC[C@@](C)(C(=O)N[C@@H](Cc3ccccc3)C(=O)N[C@@H](Cc3csc4ccccc34)C(=O)N[C@@H](CCC(N)=O)C(N)=O)NC(=O)[C@H](CCC(N)=O)NC(=O)[C@H](Cc3ccccc3)NC(=O)[C@H](C)NC(=O)[C@H](C)NC(=O)[C@H](CCC(=O)O)NC(=O)[C@H](CC(=O)O)NC1=O)NC(=O)[C@H](CC(N)=O)NC(=O)[C@H](CC(=O)O)NC2=O (stereo partly drawn) [I-1532, Ac-PL3-Asp-Asn-B5-Asp-Glu-Ala-Ala-Phe-Gln-S8-Phe-BztA-Gln-NH2]
[1]
  IC50: 49 nM
[2]; absolute IC50
  IC50: > 20000 nM

## CC(=O)N1CCC[C@]12CC=CCCCC1(CCCC=CCCCOC(=O)N3CC[C@@](C(=O)N[C@@H](Cc4ccccc4Cl)C(=O)N[C@@H](Cc4csc5ccccc45)C(=O)N[C@@H](CO)C(N)=O)(C3)NC(=O)[C@H](CC(C)C)NC(=O)[C@H](Cc3ccccc3)NC(=O)[C@H](C)NC(=O)C(C)(C)NC(=O)[C@H](Cc3cccc(C(=O)O)c3)NC(=O)[C@H](CC(=O)O)NC1=O)NC(=O)[C@H](CC(C)(C)C)NC(=O)[C@H](CC(=O)O)NC2=O (stereo partly drawn) [I-1900, Ac-PL3-Asp-Npg-B5-Asp-3COOHF-Aib-Ala-Phe-Leu-PyrS2-2C1F-BztA-Ser-NH2]
[1]
  IC50: 136 nM
[2]
  IC50: > 20000 nM

## CC(=O)N1CCC[C@]12CC=CCCCC1(CCCC=CCCCOC(=O)N3CC[C@@](C(=O)N[C@@H](Cc4ccsc4)C(=O)N[C@@H](Cc4ccc(Cl)c(Cl)c4)C(=O)N[C@@H](C)C(N)=O)(C3)NC(=O)[C@H](C(C)C)NC(=O)[C@H](Cc3ccccc3)NC(=O)[C@H](C)NC(=O)[C@H](CCC(N)=O)NC(=O)[C@H](Cc3cccc(C(=O)O)c3)NC(=O)[C@H](CC(=O)O)NC1=O)NC(=O)[C@H](CC(C)(C)C)NC(=O)[C@H](CC(=O)O)NC2=O (stereo partly drawn) [I-2217, Ac-PL3-Asp-Npg-B5-Asp-3COOHF-Gln-Ala-Phe-Val-PyrS2-3Thi-34C1F-Ala-NH2]
[1]
  IC50: 6 nM
[2]; absolute IC50
  IC50: 2100 nM

## CC(=O)NCCCC[C@@H]1NC(=O)[C@H](Cc2ccccc2)NC(=O)[C@H](C)NC(=O)[C@H](C)NC(=O)[C@H](Cc2cccc(C(=O)O)c2)NC(=O)[C@H](CC(=O)O)NC(=O)C2(CCCC=CCCCOC(=O)N3CC[C@@](C(=O)N[C@@H](Cc4ccccc4C(F)(F)F)C(=O)N[C@@H](Cc4csc5ccccc45)C(=O)N[C@@H](CCC(=O)N4CCOCC4)C(N)=O)(C3)NC1=O)CCCC=CC[C@]1(CCCN1C(C)=O)C(=O)N[C@@H](CC(=O)O)C(=O)N[C@@H](CC(C)(C)C)C(=O)N2 (stereo partly drawn) [I-2548, Ac-PL3-Asp-Npg-B5-Asp-3COOHF-Ala-Ala-Phe-AcLys-PyrS2-2F3MeF-BztA-MorphGln-NH2]
[1]
  IC50: 11 nM
[2]; absolute IC50
  IC50: 3600 nM

## CC(=O)N1CCC[C@]12CC=CCCCC1(CCCC=CCCCOC(=O)N3CC[C@@](C(=O)N[C@@H](Cc4ccccc4C(F)(F)F)C(=O)N[C@@H](Cc4csc5cccc(Cl)c45)C(=O)N[C@@H](CCC(N)=O)C(N)=O)(C3)NC(=O)[C@H](CC(C)C)NC(=O)[C@H](Cc3ccccc3)NC(=O)[C@H](C)NC(=O)[C@H](C)NC(=O)[C@H](Cc3cccc(C(=O)O)c3)NC(=O)[C@H](CC(=O)O)NC1=O)NC(=O)[C@H](CC(C)(C)C)NC(=O)[C@H](CC(=O)O)NC2=O (stereo partly drawn) [I-2490, Ac-PL3-Asp-Npg-B5-Asp-3COOHF-Ala-Ala-Phe-Leu-PyrS2-2F3MeF-4C1BztA-Gln-NH2]
[1]
  IC50: 39 nM
[2]; absolute IC50
  IC50: 6400 nM

## CC(=O)N1CCC[C@]12CC=CCCCC1(CCCC=CCCCOC(=O)N3CC[C@@](C(=O)N[C@@H](Cc4ccsc4)C(=O)N[C@@H](Cc4csc5ccccc45)C(=O)N[C@@H](C)C(N)=O)(C3)NC(=O)[C@H](Cc3ccccc3)NC(=O)[C@H](Cc3ccccc3)NC(=O)[C@H](C)NC(=O)[C@H](C)NC(=O)[C@H](Cc3cccc(C(=O)O)c3)NC(=O)[C@H](CC(=O)O)NC1=O)NC(=O)[C@H](CC(C)(C)C)NC(=O)[C@H](CC(=O)O)NC2=O (stereo partly drawn) [I-2259, Ac-PL3-Asp-Npg-B5-Asp-3COOHF-Ala-Ala-Phe-Phe-PyrS2-3Thi-BztA-Ala-NH2]
[1]
  IC50: 30 nM
[2]; absolute IC50
  IC50: 4300 nM

## CC(=O)N1CCC[C@]12CC=CCCCC1(CCCC=CCCCOC(=O)N3CC[C@@](C(=O)N[C@@H](Cc4ccsc4)C(=O)N[C@@H](Cc4csc5ccccc45)C(=O)N[C@@H](CCC(N)=O)C(N)=O)(C3)NC(=O)[C@H](CC(N)=O)NC(=O)[C@H](Cc3ccccc3)NC(=O)[C@H](C)NC(=O)[C@H](C)NC(=O)[C@H](Cc3ccc(-c4nnn[nH]4)cc3)NC(=O)[C@H](CC(=O)O)NC1=O)NC(=O)[C@H](CC(C)(C)C)NC(=O)[C@H](CC(=O)O)NC2=O (stereo partly drawn) [I-1579, Ac-PL3-Asp-Npg-B5-Asp-4TzF-Ala-Ala-Phe-Asn-PyrS2-3Thi-BztA-Gln-NH2]
[1]
  IC50: 39 nM
[2]; absolute IC50
  IC50: > 20000 nM

## CC(=O)N1CCC[C@]12CC=CCCCC1(CCCC=CCCCOC(=O)N3CC[C@@](C(=O)N[C@@H](Cc4ccsc4)C(=O)N[C@@H](Cc4csc5ccccc45)C(=O)N[C@@H](CCC(N)=O)C(N)=O)(C3)NC(=O)[C@H](CC(C)C)NC(=O)[C@H](Cc3ccccc3)NC(=O)[C@H](C)NC(=O)[C@H](C)NC(=O)[C@H](CCN(CC(=O)O)C(=O)c3ccc(CN4CCOCC4)cc3)NC(=O)[C@H](CC(=O)O)NC1=O)NC(=O)[C@H](CC(C)(C)C)NC(=O)[C@H](CC(=O)O)NC2=O (stereo partly drawn) [I-2248, Ac-PL3-Asp-Npg-B5-Asp-[MeMorphBz]GAbu-Ala-Ala-Phe-Leu-PyrS2-3Thi-BztA-Gln-NH2]
[1]
  IC50: 8 nM
[2]; absolute IC50
  IC50: 21500 nM

## CC(=O)N1CCC[C@]12CC=CCCCC1(CCCC=CCCCOC(=O)N3CC[C@@](C(=O)N[C@@H](Cc4ccccc4C(F)(F)F)C(=O)N[C@@H](Cc4ccc5ccccc5c4)C(=O)N[C@@H](CCC(N)=O)C(N)=O)(C3)NC(=O)[C@H](CC(C)C)NC(=O)[C@H](Cc3ccccc3)NC(=O)[C@H](C)NC(=O)[C@H](C)NC(=O)[C@H](Cc3cccc(C(=O)O)c3)NC(=O)[C@H](CC(=O)O)NC1=O)NC(=O)[C@H](CC(C)(C)C)NC(=O)[C@H](CC(=O)O)NC2=O (stereo partly drawn) [I-2460, Ac-PL3-Asp-Npg-B5-Asp-3COOHF-Ala-Ala-Phe-Leu-PyrS2-2F3MeF-2NapA-Gln-NH2]
[1]
  IC50: 82 nM
[2]; absolute IC50
  IC50: 12800 nM

## CC(=O)N1CCC[C@]12CCCCCCC1(CCCCCCCCOC(=O)N3CC[C@@](C(=O)N[C@@H](Cc4ccccc4)C(=O)N[C@@H](Cc4csc5ccccc45)C(=O)N[C@@H](CCC(N)=O)C(N)=O)(C3)NC(=O)[C@H](CC(C)C)NC(=O)[C@H](Cc3ccccc3)NC(=O)[C@H](C)NC(=O)[C@H](C)NC(=O)[C@H](CN(CC(=O)O)CC(F)(F)F)NC(=O)[C@H](CC(=O)O)NC1=O)NC(=O)[C@H](CC(C)(C)C)NC(=O)[C@H](CC(=O)O)NC2=O (stereo partly drawn) [I-1711, Ac-PL3-Asp-Npg-B5-Asp-TfeGA-Ala-Ala-Phe-Leu-PyrS2-Phe-BztA-Gln-NH2]
[1]
  IC50: 232 nM
[2]; absolute IC50
  IC50: 33300 nM

## C[C@@H]1NC(=O)[C@H](C)NC(=O)[C@H](CN(CC(=O)O)CC(F)(F)F)NC(=O)[C@H](CC(=O)O)NC(=O)C2(CCCC=CCCCOC(=O)N3CC[C@@](C(=O)N[C@@H](Cc4ccsc4)C(=O)N[C@@H](Cc4csc5ccccc45)C(=O)N[C@@H](CCC(N)=O)C(N)=O)(C3)NC(=O)[C@H](CC(N)=O)NC(=O)[C@H](Cc3ccccc3)NC1=O)CCCC=CC[C@]1(CCCN1S(C)(=O)=O)C(=O)N[C@@H](CC(=O)O)C(=O)N[C@@H](CC(C)(C)C)C(=O)N2 (stereo partly drawn) [I-1219, MeSO2-PL3-Asp-Npg-B5-Asp-TfeGA-Ala-Ala-Phe-Asn-PyrS2-3Thi-BztA-Gln-NH2]
[1]
  IC50: 7 nM
[2]; absolute IC50
  IC50: > 20000 nM

From US20240116985A1, “STAPLED PEPTIDES AND METHODS THEREOF” (priority 2020, published 2024)
